In patent US20240376084A1, “INHIBITORS OF ALPHA-HEMOLYSIN OF STAPHYLOCOCCUS AUREUS” (Helmholtz-Zentrum Fur Infektionsforschung GmbH, priority 2021, published 2024):

Assays:
[1] = biological target: hemolysin alpha from Staphylococcus aureus (Staphylococcus aureus, UniProt P09616); assay: cell-based
[2] = biological target: S. aureus Alpha hemolysin (Staphylococcus aureus, UniProt P09616); assay: cell-based; conditions: A549-LDH Assay activity
S. aureus Alpha hemolysin, sequence (P09616 27-319 limits assumed): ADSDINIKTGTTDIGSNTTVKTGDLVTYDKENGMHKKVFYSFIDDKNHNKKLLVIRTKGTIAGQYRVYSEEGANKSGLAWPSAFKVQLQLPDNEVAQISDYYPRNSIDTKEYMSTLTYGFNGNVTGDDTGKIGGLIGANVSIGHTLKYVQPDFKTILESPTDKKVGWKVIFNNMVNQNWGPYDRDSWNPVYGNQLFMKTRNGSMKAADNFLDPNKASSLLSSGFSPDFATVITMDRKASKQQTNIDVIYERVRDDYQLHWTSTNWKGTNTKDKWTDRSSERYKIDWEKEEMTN

hemolysin alpha from Staphylococcus aureus, sequence (P09616 27-319 limits assumed): as above

| SMILES | IC50 [1] [nM] | EC50 [2] [nM] | EC50 [1] [nM] |
| --- | --- | --- | --- |
| O=c1[nH]c2cc(Cl)c(S(=O)(=O)Nc3ccc(-c4ccccc4F)c(Cl)c3)cc2[nH]c1=O [Compound 25, 7-chloro-N-(2-chloro-2′-fluoro-[1,1′-biphenyl]-4-yl)-2,3-dioxo-1,2,3,4-tetrahydroquinoxaline-6-sulfonamide] | < 30 | 100 to 1000 |  |
| Cc1cc2[nH]c(=O)c(=O)[nH]c2cc1S(=O)(=O)Nc1ccc(-c2ccc3c(c2)OCCO3)c(Cl)c1 [Compound 259, N-[3-chloro-4-(2,3-dihydro-1,4-benzodioxin-6-yl)phenyl]-7-methyl-2,3-dioxo-1,4-dihydroquinoxaline-6-sulfonamide] |  | 100 to 1000 | < 30 |
| Cc1cc2[nH]c(=O)c(=O)[nH]c2cc1S(=O)(=O)Nc1ccc(OC(F)(F)F)c(Br)c1 [Compound 322, N-[3-bromo-4-(trifluoromethoxy)phenyl]-7-methyl-2,3-dioxo-1,4-dihydroquinoxaline-6-sulfonamide] |  | 30 to 100 | 30 to 100 |
| CCCc1ccc(NS(=O)(=O)c2cc3[nH]c(=O)c(=O)[nH]c3cc2Br)cc1 [Compound 41, 7-bromo-2,3-dioxo-N-(4-propylphenyl)-1,2,3,4-tetrahydroquinoxaline-6-sulfonamide] | 30 to 100 | 30 to 100 |  |
| O=c1[nH]c2cc(Cl)c(S(=O)(=O)Nc3ccc(-c4ccc(F)c(Cl)c4F)c(Cl)c3)cc2[nH]c1=O [Compound 105, 7-chloro-N-(2,3′-dichloro-2′,4′-difluoro-[1,1′-biphenyl]-4-yl)-2,3-dioxo-1,2,3,4-tetrahydroquinoxaline-6-sulfonamide] | 100 to 1000 | 100 to 1000 |  |
| Cc1cc2[nH]c(=O)c(=O)[nH]c2cc1S(=O)(=O)Nc1ccc(-c2ccccc2Cl)cc1 [Compound 108, N-(2′-chloro-[1,1′-biphenyl]-4-yl)-7-methyl-2,3-dioxo-1,2,3,4-tetrahydroquinoxaline-6-sulfonamide] | 100 to 1000 | 100 to 1000 |  |
| Cc1cc2[nH]c(=O)c(=O)[nH]c2cc1S(=O)(=O)Nc1ccc(OC(F)(F)F)c(Cl)c1 [Compound 324, N-[3-chloro-4-(trifluoromethoxy)phenyl]-7-methyl-2,3-dioxo-1,4-dihydroquinoxaline-6-sulfonamide] |  | 30 to 100 | 30 to 100 |
| CCc1ccccc1-c1c(C)cc(NS(=O)(=O)c2cc3[nH]c(=O)c(=O)[nH]c3cc2C)cc1C [Compound 134, N-(2′-ethyl-2,6-dimethyl-[1,1′-biphenyl]-4-yl)-7-methyl-2,3-dioxo-1,2,3,4-tetrahydroquinoxaline-6-sulfonamide] | 100 to 1000 | 30 to 100 |  |
| CCO/C=C/c1ccc(NS(=O)(=O)c2cc3[nH]c(=O)c(=O)[nH]c3cc2C)cc1Cl [Compound 293, N-[3-chloro-4-[(E)-2-ethoxyvinyl]phenyl]-7-methyl-2,3-dioxo-1,4-dihydroquinoxaline-6-sulfonamide] |  | 1000 to 6000 | 100 to 1000 |
| Cc1cc2[nH]c(=O)c(=O)[nH]c2cc1S(=O)(=O)Nc1ccc(OC(F)(F)F)cc1 [Compound 28, 7-methyl-2,3-dioxo-N-(4-(trifluoromethoxy)phenyl)-1,2,3,4-tetrahydroquinoxaline-6-sulfonamide] | < 30 | < 30 |  |
| O=c1[nH]c2cc(Cl)c(S(=O)(=O)Nc3ccc(-c4ccc(F)c(Cl)c4)c(Cl)c3)cc2[nH]c1=O [Compound 19, 7-chloro-N-(2,3′-dichloro-4′-fluoro-[1,1′-biphenyl]-4-yl)-2,3-dioxo-1,2,3,4-tetrahydroquinoxaline-6-sulfonamide] | < 30 | 100 to 1000 |  |
| Cc1nc2cc(-c3ccc(NS(=O)(=O)c4cc5[nH]c(=O)c(=O)[nH]c5cc4C)cc3Cl)ccc2o1 [Compound 272, N-[3-chloro-4-(2-methyl-1,3-benzoxazol-5-yl)phenyl]-7-methyl-2,3-dioxo-1,4-dihydroquinoxaline-6-sulfonamide] |  | < 30 | < 30 |
| Cc1ccccc1-c1ccc(NS(=O)(=O)c2cc3[nH]c(=O)c(=O)[nH]c3cc2C)cc1C [Compound 103, N-(2,2′-dimethyl-[1,1′-biphenyl]-4-yl)-7-methyl-2,3-dioxo-1,2,3,4-tetrahydroquinoxaline-6-sulfonamide] | 100 to 1000 | 100 to 1000 |  |
| Cc1cc2[nH]c(=O)c(=O)[nH]c2cc1S(=O)(=O)Nc1ccc(C2=CCCCC2)c(Br)c1 [Compound 299, N-[3-bromo-4-(cyclohexen-1-yl)phenyl]-7-methyl-2,3-dioxo-1,4-dihydroquinoxaline-6-sulfonamide] |  | 30 to 100 | 30 to 100 |
| Cc1cc2[nH]c(=O)c(=O)[nH]c2cc1S(=O)(=O)Nc1cc(Cl)c(-c2ccc(F)c(Cl)c2)cn1 [Compound 211, N-(4-chloro-5-(3-chloro-4-fluorophenyl)pyridin-2-yl)-7-methyl-2,3-dioxo-1,2,3,4-tetrahydroquinoxaline-6-sulfonamide] |  | 100 to 1000 | 100 to 1000 |
| Cc1cc2[nH]c(=O)c(=O)[nH]c2cc1S(=O)(=O)Nc1ccc(-c2cccc(Br)c2)c(Cl)c1 [Compound 310, N-[4-(3-bromophenyl)-3-chloro-phenyl]-7-methyl-2,3-dioxo-1,4-dihydroquinoxaline-6-sulfonamide] |  | 100 to 1000 | < 30 |

| SMILES | IC50 [1] [nM] | EC50 [2] [nM] | EC50 [1] [nM] |
| --- | --- | --- | --- |
| Cc1ccc(-c2ccc(NS(=O)(=O)c3cc4[nH]c(=O)c(=O)[nH]c4cc3C)cc2Cl)o1 [Compound 69, N-(3-chloro-4-(5-methylfuran-2-yl)phenyl)-7-methyl-2,3-dioxo-1,2,3,4-tetrahydroquinoxaline-6-sulfonamide] | 30 to 100 | 1000 to 6000 |  |
| Cc1cc2[nH]c(=O)c(=O)[nH]c2cc1S(=O)(=O)Nc1ccc(N2CCOCC2(C)C)c(Cl)c1 [Compound 202, N-(3-chloro-4-(3,3-dimethylmorpholino)phenyl)-7-methyl-2,3-dioxo-1,2,3,4-tetrahydroquinoxaline-6-sulfonamide] |  | 100 to 1000 | 100 to 1000 |
| CC(C)c1cc2[nH]c(=O)c(=O)[nH]c2cc1S(=O)(=O)Nc1ccc(-c2ccsc2)c(Cl)c1 [Compound 100, N-(3-chloro-4-(thiophen-3-yl)phenyl)-7-isopropyl-2,3-dioxo-1,2,3,4-tetrahydroquinoxaline-6-sulfonamide] | 100 to 1000 | 1000 to 6000 |  |
| CCCc1ccc(NS(=O)(=O)c2cc3[nH]c(=O)c(=O)[nH]c3cc2F)cc1 [Compound 87, 7-fluoro-2,3-dioxo-N-(4-propylphenyl)-1,2,3,4-tetrahydroquinoxaline-6-sulfonamide] | 100 to 1000 | 30 to 100 |  |
| Cc1cc2[nH]c(=O)c(=O)[nH]c2cc1S(=O)(=O)Nc1ccc(-c2cc(F)cc(C(N)=O)c2)c(C(F)(F)F)c1 [Compound 363, 3-fluoro-5-[4-[(7-methyl-2,3-dioxo-1,4-dihydroquinoxalin-6-yl)sulfonylamino]-2-(trifluoromethyl)phenyl]benzamide] |  | 30 to 100 | 30 to 100 |
| Cc1cc2[nH]c(=O)c(=O)[nH]c2cc1S(=O)(=O)Nc1ccc(-c2ccccc2)c(Cl)c1 [Compound 1, N-(2-chloro-[1,1′-biphenyl]-4-yl)-7-methyl-2,3-dioxo-1,2,3,4-tetrahydroquinoxaline-6-sulfonamide] | < 30 | 30 to 100 |  |
| COc1ccccc1-c1c(C)cc(NS(=O)(=O)c2cc3[nH]c(=O)c(=O)[nH]c3cc2C)cc1C [Compound 102, N-(2′-methoxy-2,6-dimethyl-[1,1′-biphenyl]-4-yl)-7-methyl-2,3-dioxo-1,2,3,4-tetrahydroquinoxaline-6-sulfonamide] | 100 to 1000 | 30 to 100 |  |
| Cc1cc2[nH]c(=O)c(=O)[nH]c2cc1S(=O)(=O)Nc1ccc(-c2cc(CO)ccc2F)c(Cl)c1 [Compound 282, N-[3-chloro-4-[2-fluoro-5-(hydroxymethyl)phenyl]phenyl]-7-methyl-2,3-dioxo-1,4-dihydroquinoxaline-6-sulfonamide] |  | 100 to 1000 | 30 to 100 |
| Cc1cc2[nH]c(=O)c(=O)[nH]c2cc1S(=O)(=O)Nc1ccc(-c2ccccc2F)c(Cl)c1 [Compound 5, N-(2-chloro-2′-fluoro-[1,1′-biphenyl]-4-yl)-7-methyl-2,3-dioxo-1,2,3,4-tetrahydroquinoxaline-6-sulfonamide] | < 30 | 30 to 100 |  |
| O=c1[nH]c2cc(NCCO)c(S(=O)(=O)Nc3ccc(OC(F)(F)F)cc3)cc2[nH]c1=O [Compound 281, 7-(2-hydroxyethylamino)-2,3-dioxo-N-[4-(trifluoromethoxy)phenyl]-1,4-dihydroquinoxaline-6-sulfonamide] |  | < 30 | < 30 |
| Cc1cc2[nH]c(=O)c(=O)[nH]c2cc1S(=O)(=O)Nc1cc(C)c(-c2ccccc2F)c(C)c1 [Compound 51, N-(2′-fluoro-2,6-dimethyl-[1,1′-biphenyl]-4-yl)-7-methyl-2,3-dioxo-1,2,3,4-tetrahydroquinoxaline-6-sulfonamide] | 30 to 100 | 30 to 100 |  |
| Cc1cc(NS(=O)(=O)c2cc3[nH]c(=O)c(=O)[nH]c3cc2Cl)cc(C)c1-c1ccccc1 [Compound 106, 7-chloro-N-(2,6-dimethyl-[1,1′-biphenyl]-4-yl)-2,3-dioxo-1,2,3,4-tetrahydroquinoxaline-6-sulfonamide] | 100 to 1000 | 30 to 100 |  |
| Cc1cc2[nH]c(=O)c(=O)[nH]c2cc1S(=O)(=O)Nc1ccc(-c2cccc(S(=O)(=O)N(C)C)c2)c(Cl)c1 [Compound 335, N-[3-chloro-4-[3-(dimethylsulfamoyl)phenyl]phenyl]-7-methyl-2,3-dioxo-1,4-dihydroquinoxaline-6-sulfonamide] |  | 1000 to 6000 | 100 to 1000 |
| CC(=O)Nc1cc(-c2ccc(NS(=O)(=O)c3cc4[nH]c(=O)c(=O)[nH]c4cc3C)cc2C(F)(F)F)ccc1O [Compound 346, N-[2-hydroxy-5-[4-[(7-methyl-2,3-dioxo-1,4-dihydroquinoxalin-6-yl)sulfonylamino]-2-(trifluoromethyl)phenyl]phenyl]acetamide] |  | 100 to 1000 | 30 to 100 |
| Cc1cc2[nH]c(=O)c(=O)[nH]c2cc1S(=O)(=O)Nc1ccc(-c2ccccc2N(C)C)cc1 [Compound 119, N-(2′-(dimethylamino)-[1,1′-biphenyl]-4-yl)-7-methyl-2,3-dioxo-1,2,3,4-tetrahydroquinoxaline-6-sulfonamide] | 100 to 1000 | 100 to 1000 |  |
